Test results reported in ChEMBL document CHEMBL3044807, “Synthesis and biological evaluation of new ozonides with improved plant growth regulatory activity” (2009).

Tests used:
Assay type in all cases: functional
Cucumis sativus [1] = assay: Phytotoxic activity against Cucumis sativus (cucumber) seedlings assessed as radicle length at 5x10'-4 mol/l at 28 +/-1 degC after 48 hr by acid-washed sand based radicle elongation assay (reference value: 4.8 cm)
Cucumis sativus [2] = assay: Phytotoxic activity against Cucumis sativus (cucumber) seedlings assessed as germination at 5x10'-4 mol/l at 28 +/-1 degC after 48 hr by acid-washed sand based radicle elongation assay (reference value: 100%)
Sorghum bicolor [3] = assay: Phytotoxic activity against Sorghum bicolor assessed as aerial part growth inhibition at 5.0 x 10^-4 mol/l measured 15 days after seed sowing under greenhouse trials (reference value: 0.0%); settings: 360 h
Cucumis sativus [4] = assay: Phytotoxic activity against Cucumis sativus (cucumber) assessed as weight of aerial parts at 5.0 x 10^-4 mol/l measured 15 days after seed sowing under greenhouse trials (reference value: 47.0 mg)
Sorghum bicolor [5] = assay: Phytotoxic activity against Sorghum bicolor assessed as root growth inhibition at 5.0 x 10^-4 mol/l measured 15 days after seed sowing under greenhouse trials (reference value: 0.0%); settings: 360 h
Sorghum bicolor [6] = assay: Phytotoxic activity against Sorghum bicolor seedlings assessed as germination at 5x10'-4 mol/l at 28 +/-1 degC after 48 hr by acid-washed sand based radicle elongation assay (reference value: 100%)
Sorghum bicolor [7] = assay: Phytotoxic activity against Sorghum bicolor seedlings assessed as radicle length at 5x10'-4 mol/l at 28 +/-1 degC after 48 hr by acid-washed sand based radicle elongation assay (reference value: 5.1 cm)
Sorghum bicolor [8] = assay: Phytotoxic activity against Sorghum bicolor assessed as weight of aerial parts at 5.0 x 10^-4 mol/l measured 15 days after seed sowing under greenhouse trials (reference value: 19.0 mg)
Sorghum bicolor [9] = assay: Phytotoxic activity against Sorghum bicolor seedlings assessed as inhibition of radicle growth at 5x10'-4 mol/l at 28 +/-1 degC after 48 hr by acid-washed sand based radicle elongation assay (reference value: 0.0%)
Cucumis sativus [10] = assay: Phytotoxic activity against Cucumis sativus (cucumber) assessed as weight of roots at 5.0 x 10^-4 mol/l measured 15 days after seed sowing under greenhouse trials (reference value: 31.0 mg)
Cucumis sativus [11] = assay: Phytotoxic activity against Cucumis sativus (cucumber) seedlings assessed as inhibition of radicle growth at 5x10'-4 mol/l at 28 +/-1 degC after 48 hr by acid-washed sand based radicle elongation assay (reference value: 0.0%)
Cucumis sativus [12] = assay: Phytotoxic activity against Cucumis sativus (cucumber) assessed as root growth inhibition at 5.0 x 10^-4 mol/l measured 15 days after seed sowing under greenhouse trials (reference value: 0.0%); settings: 360 h
Cucumis sativus [13] = assay: Phytotoxic activity against Cucumis sativus (cucumber) assessed as aerial part growth inhibition at 5.0 x 10^-4 mol/l measured 15 days after seed sowing under greenhouse trials (reference value: 0.0%); settings: 360 h
Sorghum bicolor [14] = assay: Phytotoxic activity against Sorghum bicolor assessed as weight of roots at 5.0 x 10^-4 mol/l measured 15 days after seed sowing under greenhouse trials (reference value: 14.0 mg)
Ipomoea grandifolia [15] = assay: Phytotoxic activity against Ipomoea grandifolia assessed as root growth inhibition at 5.0 x 10^-4 mol/l measured 21 days after seed sowing under greenhouse trials (reference value: 0.0%); settings: 504 h
Ipomoea grandifolia [16] = assay: Phytotoxic activity against Ipomoea grandifolia assessed as weight of aerial parts at 5.0 x 10^-4 mol/l measured 21 days after seed sowing under greenhouse trials (reference value: 17.8 mg)
Urochloa decumbens [17] = assay: Phytotoxic activity against Urochloa decumbens assessed as root growth inhibition at 5.0 x 10^-4 mol/l measured 21 days after seed sowing under greenhouse trials (reference value: 0.0%); settings: 504 h
Ipomoea grandifolia [18] = assay: Phytotoxic activity against Ipomoea grandifolia assessed as weight of root at 5.0 x 10^-4 mol/l measured 21 days after seed sowing under greenhouse trials (reference value: 18.4 mg)
Urochloa decumbens [19] = assay: Phytotoxic activity against Urochloa decumbens assessed as weight of root at 5.0 x 10^-4 mol/l measured 21 days after seed sowing under greenhouse trials (reference value: 21.2 mg)
Urochloa decumbens [20] = assay: Phytotoxic activity against Urochloa decumbens assessed as aerial part growth inhibition at 5.0 x 10^-4 mol/l measured 21 days after seed sowing under greenhouse trials (reference value: 0.0%); settings: 504 h
Ipomoea grandifolia [21] = assay: Phytotoxic activity against Ipomoea grandifolia assessed as aerial part growth inhibition at 5.0 x 10^-4 mol/l measured 21 days after seed sowing under greenhouse trials (reference value: 0.0%); settings: 504 h
Urochloa decumbens [22] = assay: Phytotoxic activity against Urochloa decumbens assessed as weight of aerial parts at 5.0 x 10^-4 mol/l measured 21 days after seed sowing under greenhouse trials (reference value: 22.0 mg)

Row | SMILES | Activity (Cucumis sativus [1]) | germination % at 500 µM (Cucumis sativus [2]) | inhibition at 500 µM (Sorghum bicolor [3]) | Activity (Cucumis sativus [4]) | inhibition at 500 µM (Sorghum bicolor [5]) | germination % at 500 µM (Sorghum bicolor [6]) | Activity (Sorghum bicolor [7]) | Activity (Sorghum bicolor [8]) | inhibition at 500 µM (Sorghum bicolor [9]) | Activity (Cucumis sativus [10]) | inhibition at 500 µM (Cucumis sativus [11]) | inhibition at 500 µM (Cucumis sativus [12]) | inhibition at 500 µM (Cucumis sativus [13]) | Activity (Sorghum bicolor [14]) | further results
1 | CC1=C2CCC(C)C[C@@]23O[C@H]1[C@H](C)C(=O)[C@H]3C (some centres not stated) | 1.3 cm | 96% | 26.3% | 44.2 mg | 6.2% | 96% | 1.5 cm | 14 mg | 71.4% | 20.3 mg | 72.4% | 34.4% | 5.9% | 13.1 mg | 
2 | CC[C@@H]1C(=O)[C@@H](CC)[C@@]23CC(C)CCC2=C(C)[C@H]1O3 (some centres not stated) | 1.8 cm | 96% | 28.1% | 30.7 mg | 9.3% | 93% | 1.7 cm | 13.7 mg | 68% | 6.3 mg | 62.9% | 79.7% | 34.6% | 12.7 mg | inhibition at 500 µM (Ipomoea grandifolia [15]): 85.3%; Activity (Ipomoea grandifolia [16]): 6.9 mg; inhibition at 500 µM (Urochloa decumbens [17]): 85.5%; Activity (Ipomoea grandifolia [18]): 2.4 mg; Activity (Urochloa decumbens [19]): 3.4 mg; inhibition at 500 µM (Urochloa decumbens [20]): 75.3%; inhibition at 500 µM (Ipomoea grandifolia [21]): 61.8%; Activity (Urochloa decumbens [22]): 5.4 mg
3 | O=C1[C@@H]2CCCC[C@@H]1[C@@H]1C=C[C@@H]2O1 | 0.9 cm | 90% | 4.5% | 32.7 mg | 6.2% | 93% | 1.9 cm | 18.1 mg | 62% | 16.5 mg | 82.2% | 47.3% | 30.4% | 13.1 mg | 
4 | C[C@@]12C=C[C@H](O1)[C@H]1CCCC[C@H]2C1=O | 1.2 cm | 95% | 42.6% | 26 mg | 30.7% | 99% | 2.1 cm | 10.9 mg | 58.9% | 17.6 mg | 74.7% | 43.1% | 44.6% | 9.7 mg | 
5 | CC[C@@]12C=C[C@H](O1)[C@H]1CCCC[C@H]2C1=O | 1.3 cm | 100% | 48.8% | 14.5 mg | 49% | 100% | 1.8 cm | 9.7 mg | 64.2% | 15.8 mg | 73.2% | 49.2% | 69.2% | 7.7 mg | 
6 | CC1=C[C@@H]2O[C@]1(C)[C@H]1CCCC[C@H]2C1=O | 0.9 cm | 96% | 47.4% | 16.3 mg | 49.6% | 79% | 0.9 cm | 10 mg | 82.5% | 11.7 mg | 82.1% | 62.1% | 65.4% | 7.1 mg | 
7 | C[C@@]12C=C[C@](C)(O1)[C@H]1CCCC[C@H]2C1=O | 1.4 cm | 82% | 32.9% | 39.7 mg | 14.8% | 100% | 0.9 cm | 12.7 mg | 83.4% | 10.5 mg | 70.7% | 66.2% | 15.6% | 11.9 mg | 
8 | CC(=O)[C@@]12C=C[C@H](O1)[C@H]1CCCC[C@H]2C1=O | 0.9 cm | 86% | 6% | 20 mg | 23.2% | 96% | 0.6 cm | 17.8 mg | 88.5% | 4.9 mg | 82.1% | 84.1% | 57.4% | 10.7 mg | inhibition at 500 µM (Ipomoea grandifolia [15]): 46.2%; Activity (Ipomoea grandifolia [16]): 10.9 mg; inhibition at 500 µM (Urochloa decumbens [17]): 78.4%; Activity (Ipomoea grandifolia [18]): 8.6 mg; Activity (Urochloa decumbens [19]): 4.5 mg; inhibition at 500 µM (Urochloa decumbens [20]): 66.5%; inhibition at 500 µM (Ipomoea grandifolia [21]): 39.4%; Activity (Urochloa decumbens [22]): 7.4 mg
9 | CC12OC(C3OOC1O3)C1CCCCC2C1=O (mixture of isomers) | 2.3 cm | 70% | 20% | 17 mg | 11.8% | 96% | 1.5 cm | 15.4 mg | 71.5% | 10.6 mg | 52% | 65.9% | 63.9% | 12.7 mg | 
10 | CC12OOC(O1)C1OC2(C)C2CCCCC1C2=O (mixture of isomers) | 0.8 cm | 100% | 41.8% | 32.9 mg | 34.6% | 100% | 1 cm | 11.1 mg | 80.2% | 13.2 mg | 84.2% | 57.4% | 29.9% | 9.2 mg | 
11 | CC1CCC23OOC(C)(O2)C2OC3(C1)C(C)C(=O)C2C (mixture of isomers) | 2.9 cm | 93% | 6.8% | 29.7 mg | 9.1% | 96% | 1.4 cm | 17.7 mg | 72.1% | 15.3 mg | 39.9% | 50.8% | 36.9% | 12.7 mg | 
12 | CCC1C(=O)C(CC)C23CC(C)CCC24OOC(C)(O4)C1O3 (mixture of isomers) | 2.1 cm | 96% | 39.6% | 30.1 mg | 6.5% | 100% | 2.3 cm | 11.5 mg | 55.1% | 29 mg | 55.6% | 6.5% | 36% | 13.1 mg | 
13 | C[C@@H]1CC[C@H]2[C@@H](C)C(=O)O[C@@H]3O[C@@]4(C)CC[C@@H]1[C@]32OO4 [ARTEMISININ] |  |  |  |  |  |  |  |  |  |  |  |  |  |  | inhibition at 500 µM (Ipomoea grandifolia [15]): 95%; Activity (Ipomoea grandifolia [16]): 1.2 mg; inhibition at 500 µM (Urochloa decumbens [17]): 95%; Activity (Ipomoea grandifolia [18]): 0.7 mg; Activity (Urochloa decumbens [19]): 3.1 mg; inhibition at 500 µM (Urochloa decumbens [20]): 93.6%; inhibition at 500 µM (Ipomoea grandifolia [21]): 93.6%; Activity (Urochloa decumbens [22]): 2.9 mg
